# Target: Sphingosine 1-phosphate receptor 1 (Homo sapiens, UniProt P21453)
# Assay: S1P1 agonism potentiation – cell-based, potentiator mode, 60K MLSMR set, dose response (AID 466)
# Conditions: not given
# Chain of Sphingosine 1-phosphate receptor 1 (P21453 whole entry): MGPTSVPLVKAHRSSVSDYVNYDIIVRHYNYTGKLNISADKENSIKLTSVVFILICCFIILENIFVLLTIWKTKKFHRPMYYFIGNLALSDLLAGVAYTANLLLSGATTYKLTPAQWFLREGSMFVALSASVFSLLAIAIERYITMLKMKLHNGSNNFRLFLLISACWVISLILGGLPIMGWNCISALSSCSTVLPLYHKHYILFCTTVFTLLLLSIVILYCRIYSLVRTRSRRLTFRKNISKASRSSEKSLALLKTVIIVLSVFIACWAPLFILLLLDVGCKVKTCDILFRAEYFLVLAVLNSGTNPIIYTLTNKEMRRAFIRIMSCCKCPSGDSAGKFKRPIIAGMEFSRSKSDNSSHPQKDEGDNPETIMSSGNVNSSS
row,Structure (SMILES),EC50
1,CC(C)COC(=O)NCCOC(=O)Nc1cccc(Cl)c1 [2-(2-methylpropoxycarbonylamino)ethyl N-(3-chlorophenyl)carbamate],8.05 µM
2,"O=S(=O)(CCSc1ccccn1)c1nc2ccccc2s1 [2-(2-pyridin-2-ylsulfanylethylsulfonyl)-1,3-benzothiazole]",9.83 µM
3,"CCOc1ccc(-c2nnc(-c3ccco3)o2)cc1OCC [2-(3,4-Diethoxy-phenyl)-5-furan-2-yl-[1,3,4]oxadiazole]",1.04 µM
4,"CCOc1ccc(-c2nnc(-c3cccs3)o2)cc1OCC [2-(3,4-Diethoxy-phenyl)-5-thiophen-2-yl-[1,3,4]oxadiazole]",5.58 µM
5,"CCOc1ccc(-c2nnc(-c3cccnc3)o2)cc1OCC [2-(3,4-diethoxyphenyl)-5-(3-pyridinyl)-1,3,4-oxadiazole]",2.33 µM
6,"Cn1c(C(=O)N2CCc3ccccc3C2)cc2oc3ccccc3c21 [2-(3,4-dihydroisoquinolin-2(1H)-ylcarbonyl)-1-methyl-1H-[1]benzofuro[3,2-b]pyrrole]",> 30 µM
7,"COc1ccc(-c2nc3cc(NC(=O)Cc4ccc(OC)c(OC)c4)ccc3o2)cc1 [2-(3,4-dimethoxyphenyl)-N-[2-(4-methoxyphenyl)-1,3-benzoxazol-5-yl]acetamide]",9.09 µM
8,"O=C1C2CCCN2C(c2cccnc2)N1c1cccc(Cl)c1 (stereo not given) [2-(3-chlorophenyl)-3-(3-pyridinyl)-5,6,7,7a-tetrahydro-3H-pyrrolo[1,2-c]imidazol-1-one]",> 95 µM
9,"COc1ccccc1Oc1ccc2c(c1)C(=O)N(c1cccc(O)c1)C2=O [2-(3-hydroxyphenyl)-5-(2-methoxyphenoxy)isoindole-1,3-dione]",2.14 µM
10,"O=C(CSC1=NCCS1)Nc1ccnc2ccccc12 [2-(4,5-dihydro-1,3-thiazol-2-ylsulfanyl)-N-quinolin-4-yl-ethanamide]",2.55 µM
11,N#Cc1nc(-c2ccc(OCc3ccccc3)cc2)oc1NCc1cccnc1 [2-(4-benzoxyphenyl)-5-(3-pyridylmethylamino)oxazole-4-carbonitrile],9.76 µM
12,CN(C)c1oc(-c2ccc(OCc3ccccc3)cc2)nc1C#N [2-(4-benzoxyphenyl)-5-(dimethylamino)oxazole-4-carbonitrile],3.01 µM
13,"COc1ccccc1Oc1ccc2c(c1)C(=O)N(c1ccc(O)cc1)C2=O [2-(4-hydroxyphenyl)-5-(2-methoxyphenoxy)isoindole-1,3-dione]",0.151 µM
14,"O=C(CSc1nnc(Cn2nnc3ccccc32)o1)N(Cc1ccc(F)cc1)c1ccccc1 [2-(5-Benzotriazol-1-ylmethyl-[1,3,4]oxadiazol-2-ylsulfanyl)-N-(4-fluoro-benzyl)-N-phenyl-acetamide]",4.86 µM
15,COC(=O)c1ccc2c(=O)n(C3CCCCC3)c(SCC#N)nc2c1 [2-(cyanomethylthio)-3-cyclohexyl-4-keto-quinazoline-7-carboxylic acid methyl ester],6.9 µM
16,"CCOC(=O)c1sc2nc(NC(=O)C3CCCCC3)sc2c1C [2-(cyclohexanecarbonylamino)-6-methyl-thieno[2,3-d]thiazole-5-carboxylic acid ethyl ester]",> 30 µM
17,"CCCCNc1cc(C)nc(NCc2ccccc2)n1 [2-N-benzyl-4-N-butyl-6-methylpyrimidine-2,4-diamine]",5.39 µM
18,COc1ccc(-n2nnnc2S(=O)(=O)CC(=O)N2CCCCC2)cc1 [2-[1-(4-methoxyphenyl)tetrazol-5-yl]sulfonyl-1-piperidin-1-ylethanone],9.83 µM
19,"Cc1cc(C(=O)CSc2nc3ccccc3c(=O)n2C)c(C)n1Cc1ccc2c(c1)OCO2 [2-[2-[1-(1,3-benzodioxol-5-ylmethyl)-2,5-dimethyl-pyrrol-3-yl]-2-oxidanylidene-ethyl]sulfanyl-3-methyl-quinazolin-4-one]",5.57 µM

# Further lines, results first:
row,EC50,Structure (SMILES)
1,3.12 µM,"CCOC(=O)CN1C(=O)C(C)(C)Oc2ccc(C(=O)Nc3ccccc3OC)cc21 [2-[3-keto-6-[(2-methoxyphenyl)carbamoyl]-2,2-dimethyl-1,4-benzoxazin-4-yl]acetic acid ethyl ester]"
2,6.29 µM,"Cc1cc(N2CCN(c3nc4ccccc4s3)CC2)n2ncnc2n1 [2-[4-(5-methyl-[1,2,4]triazolo[1,5-a]pyrimidin-7-yl)-1-piperazinyl]-1,3-benzothiazole]"
3,1.72 µM,"Cc1ccc(C(C)C)c(OCc2ccc(-c3nnco3)cc2)c1 [2-[4-[(2-isopropyl-5-methyl-phenoxy)methyl]phenyl]-1,3,4-oxadiazole]"
4,> 10 µM,"O=S1(=O)C=C(Sc2nc3ccccc3s2)c2ccccc21 [2-[(1,1-dioxido-1-benzothien-3-yl)thio]-1,3-benzothiazole]"
5,> 10 µM,"N#Cc1nc(COc2ccc(Cl)cc2Cl)oc1N1CCN(c2ccccc2)CC1 [2-[(2,4-dichlorophenoxy)methyl]-5-(4-phenyl-1-piperazinyl)-4-oxazolecarbonitrile]"
6,7.76 µM,"COC(=O)c1sc(NC(=O)c2ccc(OC)cc2OC)nc1C [2-[(2,4-dimethoxybenzoyl)amino]-4-methyl-thiazole-5-carboxylic acid methyl ester]"
7,0.111 µM,"Cc1cc(C=c2sc3nc4ccccc4n3c2=O)c(C)n1-c1ccccn1 [2-[(2,5-dimethyl-1-pyridin-2-yl-pyrrol-3-yl)methylidene]-[1,3]thiazolo[3,2-a]benzimidazol-1-one]"
8,1.27 µM,"Cc1ccccc1-c1nnc(SCc2ccccc2F)o1 [2-[(2-fluorobenzyl)thio]-5-(2-methylphenyl)-1,3,4-oxadiazole]"
9,1.14 µM,"Cc1ccc(-c2nnc(SCc3ccccc3F)o2)cc1 [2-[(2-fluorobenzyl)thio]-5-(4-methylphenyl)-1,3,4-oxadiazole]"
10,4.41 µM,"Cc1cccc(N2CCN(C(=O)CSCc3c(C)noc3C)CC2)c1C [2-[(3,5-dimethyl-1,2-oxazol-4-yl)methylsulfanyl]-1-[4-(2,3-dimethylphenyl)piperazin-1-yl]ethanone]"
11,7.72 µM,"CCn1c(SCC(=O)Nc2nc3ccc(C)cc3s2)nc2c(c1=O)SC(C)C2 (stereo not given) [2-[(3-ethyl-4-keto-6-methyl-6,7-dihydrothieno[3,2-d]pyrimidin-2-yl)thio]-N-(6-methyl-1,3-benzothiazol-2-yl)acetamide]"
12,3.58 µM,"Clc1ccc(CSc2nnc(-c3ccncc3)o2)cc1 [2-[(4-chlorobenzyl)thio]-5-(4-pyridyl)-1,3,4-oxadiazole]"
13,2.23 µM,"Cc1cc(C(=O)CSc2nnc(-c3ccncc3)n2-c2ccccc2)c(C)n1C [2-[(4-phenyl-5-pyridin-4-yl-1,2,4-triazol-3-yl)sulfanyl]-1-(1,2,5-trimethylpyrrol-3-yl)ethanone]"
14,> 30 µM,"CC(C)OC(=O)CSc1nc(N)c(C#N)c(-c2cccs2)c1C#N [2-[(6-amino-3,5-dicyano-4-thiophen-2-yl-2-pyridinyl)thio]acetic acid propan-2-yl ester]"
15,4.71 µM,"CC(C)(C)C1CCC2(CC1)C(C#N)=C(SCC(=O)Nc1ccccc1)NC(=O)C2C#N (stereo not given) [2-[(9-tert-butyl-1,5-dicyano-2-oxidanylidene-3-azaspiro[5.5]undec-4-en-4-yl)sulfanyl]-N-phenyl-ethanamide]"
16,64.4 µM,"COCCn1c(C)cc(C(=O)CSc2nc3ccccc3c(=O)[nH]2)c1C [2-[[2-[1-(2-methoxyethyl)-2,5-dimethyl-3-pyrrolyl]-2-oxoethyl]thio]-1H-quinazolin-4-one]"

# Same assay, conditions: inactive by the depositor's call
row,Structure (SMILES),EC50
1,"O=C(CSCC(=O)N1CCCCC1)Nc1nc(-c2cccs2)cs1 [2-(2-oxidanylidene-2-piperidin-1-yl-ethyl)sulfanyl-N-(4-thiophen-2-yl-1,3-thiazol-2-yl)ethanamide]",45.2 µM
2,"Cc1cc(C)n(-c2nc3ccccc3c(=O)n2OCCOc2ccccc2)n1 [2-(3,5-dimethyl-1-pyrazolyl)-3-(2-phenoxyethoxy)-4-quinazolinone]",15 µM
3,"O=C(CSc1ncnc2c1oc1ccccc12)N1CCCc2ccccc21 [2-(4-benzofuro[3,2-d]pyrimidinylthio)-1-(3,4-dihydro-2H-quinolin-1-yl)ethanone]",10.8 µM
4,"Clc1ccc(-c2nc3nc4ccccc4nc3n2Cc2ccco2)cc1 [2-(4-chlorophenyl)-3-(2-furanylmethyl)imidazo[4,5-b]quinoxaline]",16.6 µM
5,"CCCOc1ccc(-c2nnc(-c3ccncc3)o2)cc1 [2-(4-propoxyphenyl)-5-(4-pyridyl)-1,3,4-oxadiazole]",66.5 µM
6,"c1ccc(CSc2nnc(-c3cccs3)o2)cc1 [2-(benzylthio)-5-(2-thienyl)-1,3,4-oxadiazole]",20.4 µM
7,"CCOc1nc(-c2ccccc2)ccc1-c1noc(-c2ccco2)n1 [2-Ethoxy-3-(5-furan-2-yl-[1,2,4]oxadiazol-3-yl)-6-phenyl-pyridine]",14.8 µM
8,"CN1CCN(C(=O)CSc2nc(-c3cccs3)cc(-c3cccs3)c2C#N)CC1 [2-[2-(4-methylpiperazin-1-yl)-2-oxidanylidene-ethyl]sulfanyl-4,6-dithiophen-2-yl-pyridine-3-carbonitrile]",12.9 µM
9,"Cc1cc(C(=O)CN2C(=O)c3ccccc3C2=O)c(C)n1Cc1cccs1 [2-[2-[2,5-dimethyl-1-(2-thenyl)pyrrol-3-yl]-2-keto-ethyl]isoindoline-1,3-quinone]",21.4 µM
10,CCOC(=O)Cc1csc(NC(=O)c2ccc(Br)s2)n1 [2-[2-[(5-bromothiophene-2-carbonyl)amino]thiazol-4-yl]acetic acid ethyl ester],16.5 µM
11,"CC1CCN(S(=O)(=O)c2ccc3c(c2)oc(=O)n3CC(=O)NCc2ccc3c(c2)OCO3)CC1 [2-[2-keto-6-(4-methylpiperidino)sulfonyl-1,3-benzoxazol-3-yl]-N-piperonyl-acetamide]",14.6 µM
12,COc1ccc(OCCCSc2ncccn2)cc1 [2-[3-(4-methoxyphenoxy)propylsulfanyl]pyrimidine],48.2 µM

# Second part, the molecule after the results:
row,EC50,Structure (SMILES)
1,10.1 µM,"CCOC(=O)c1sc2nc(NC(=O)C(C)(C)C)sc2c1C [2-[(2,2-dimethyl-1-oxopropyl)amino]-6-methyl-5-thieno[2,3-d]thiazolecarboxylic acid ethyl ester]"
2,38.5 µM,"Clc1ccc(CSc2nnc(-c3ccncc3)o2)c(Cl)c1 [2-[(2,4-dichlorobenzyl)thio]-5-(4-pyridyl)-1,3,4-oxadiazole]"
3,16.5 µM,"Cc1ccc2nc(NC(=O)CSc3nc4c(c(=O)n3C)SC(C)C4)sc2c1 (stereo not given) [2-[(3,6-dimethyl-4-oxidanylidene-6,7-dihydrothieno[3,2-d]pyrimidin-2-yl)sulfanyl]-N-(6-methyl-1,3-benzothiazol-2-yl)ethanamide]"
